Common to all, as to format: in vivo
In experiment [1] the test system is Abutilon theophrasti. As to the kind of experiment: Post-emergence herbicidal action. The conditions noted are these: 1280 g/ha, rated visually after about 3 weeks vs untreated controls. The method, then:
(§1) A. Post-Emergence Herbicidal Action and Crop Plant Compatibility Seeds of monocotyledonous and dicotyledonous weeds and crop plants were placed in sandy loam in plastic or wood-fiber pots, covered with soil and cultivated in a greenhouse under controlled growth conditions. 2 to 3 weeks after sowing, the test plants were treated at the one-leaf stage. The compounds of the invention, formulated in the form of wettable powders (WP) or as emulsion concentrates (EC), were then sprayed onto the green parts of the plants as aqueous suspension or emulsion with addition of 0.5% additive at a water application rate of 600 l/ha (converted). After the test plants had been kept in the greenhouse under optimum growth conditions for about 3 weeks, the activity of the preparations was rated visually in comparison to untreated controls. For example, 100% activity=the plants have died, 0% activity=like control plants. Tables B1 to B15 below show the effects of selected compounds of the general formula (I) according to Table I on various harmful plants and an application rate corresponding to 1280 g/ha, which were obtained by the experimental procedure mentioned above.

In experiment [2] the test system is Amaranthus retroflexus. The experiment is described as follows: Post-emergence herbicidal action. Conditions: 1280 g/ha, rated visually after about 3 weeks vs untreated controls. The procedure: as §1
Experiment [3] concerns Pharbitis purpurea. The experiment is described as follows: Post-emergence herbicidal action. The conditions noted are these: 1280 g/ha, rated visually after about 3 weeks vs untreated controls. The procedure:
as §1

In experiment [4] the test system is Viola tricolor. As to the kind of experiment: Post-emergence herbicidal action. The conditions noted are these: 1280 g/ha, rated visually after about 3 weeks vs untreated controls. The method, then: as §1
Experiment [5] has as its system Abutilon theophrasti. The experiment is described as follows: Pre-emergence herbicidal action. Conditions: 1280 g/ha, scored visually after about 3 weeks vs untreated controls. The source says: (§2) Pre-Emergence Herbicidal Action and Crop Plant Compatibility Seeds of monocotyledonous and dicotyledonous weed plants and crop plants were placed in plastic or wood fiber pots and covered with soil. The compounds of the invention, formulated in the form of wettable powders (WP) or as emulsion concentrates (EC), were then applied onto the surface of the covering soil as aqueous suspension or emulsion with addition of 0.5% additive at a water application rate of 600 l/ha (converted). After the treatment, the pots were placed in a greenhouse and kept under good growth conditions for the test plants. After about 3 weeks, the effect of the preparations was scored visually in comparison with untreated controls as percentages. For example, 100% activity=the plants have died, 0% activity=like control plants. Tables C1 to C14 below show the effects of selected compounds of the general formula (I) according to Table I on various harmful plants and an application rate corresponding to 1280 g/ha, which were obtained by the experimental procedure mentioned above.

Experiment [6] has as its system Amaranthus retroflexus. As to the kind of experiment: Pre-emergence herbicidal action. Conditions: 1280 g/ha, scored visually after about 3 weeks vs untreated controls.
Description: as §2

Experiment [7] deals with Setaria viridis. As to the kind of experiment: Pre-emergence herbicidal action. The conditions noted are these: 1280 g/ha, scored visually after about 3 weeks vs untreated controls.
Description: as §2

Experiment [8] relates to Stellaria media. As to the kind of experiment: Pre-emergence herbicidal action. Conditions: 1280 g/ha, scored visually after about 3 weeks vs untreated controls.
Description: as §2

Experiment [9] deals with Viola tricolor. As to the kind of experiment: Pre-emergence herbicidal action. Conditions: 1280 g/ha, scored visually after about 3 weeks vs untreated controls.
Description: as §2

Experiment [10] relates to Polygonum convolvulus. As to the kind of experiment: Pre-emergence herbicidal action. The conditions noted are these: 1280 g/ha, scored visually after about 3 weeks vs untreated controls.
Description: as §2

The subject of experiment [11] is Veronica persica. The experiment is described as follows: Pre-emergence herbicidal action. Conditions: 1280 g/ha, scored visually after about 3 weeks vs untreated controls.
Description: as §2

Experiment [12] relates to Polygonum convolvulus. The experiment is described as follows: Post-emergence herbicidal action. Conditions: 1280 g/ha, rated visually after about 3 weeks vs untreated controls. The method, then:
as §1

Experiment [13] deals with Setaria viridis. The experiment is described as follows: Post-emergence herbicidal action. Conditions: 1280 g/ha, rated visually after about 3 weeks vs untreated controls. The procedure: as §1
Experiment [14] concerns Stellaria media. As to the kind of experiment: Post-emergence herbicidal action. Conditions: 1280 g/ha, rated visually after about 3 weeks vs untreated controls. The method, then:
as §1

The test system of experiment [15] is Alopecurus myosuroides. The experiment is described as follows: Pre-emergence herbicidal action. Conditions: 1280 g/ha, scored visually after about 3 weeks vs untreated controls.
Description: as §2

Experiment [16] has as its system Echinochloa crus-galli. As to the kind of experiment: Pre-emergence herbicidal action. The conditions noted are these: 1280 g/ha, scored visually after about 3 weeks vs untreated controls.
Description: as §2

Experiment [17] concerns Matricaria inodora. As to the kind of experiment: Pre-emergence herbicidal action. The conditions noted are these: 1280 g/ha, scored visually after about 3 weeks vs untreated controls.
Description: as §2

Experiment [18] has as its system Avena fatua. The experiment is described as follows: Pre-emergence herbicidal action. Conditions: 1280 g/ha, scored visually after about 3 weeks vs untreated controls.
Description: as §2

As to `CCc1c(Sc2cccc(Cl)c2)c(Oc2ncc(F)cn2)nn1C` [Example I-034], the “herbicidal activity on Abutilon theophrasti” value in experiment [1] and in [5] was 80% each time. Further, the “herbicidal activity on Amaranthus retroflexus” value in experiment [2] and in [6] was 100% in each case. The “herbicidal activity on Pharbitis purpurea” value in experiment [3] is on record as 90%. Also, the “herbicidal activity on Viola tricolor” value in experiment [4] and in experiment [9] was 100% each time. In addition, the “herbicidal activity on Setaria viridis” value in experiment [7] is on record as 100%. Further, the “herbicidal activity on Stellaria media” value in experiment [8] is 90%.
For the compound `CCn1cc(Sc2ccccc2)c(Oc2ncc(Cl)cn2)n1` [Example I-138], the entries for the “herbicidal activity on Viola tricolor” value in experiment [4] and in experiment [9] were 80% and 90%, respectively. In addition, the “herbicidal activity on Abutilon theophrasti” value in experiment [5] is given as 80%. The “herbicidal activity on Polygonum convolvulus” value in experiment [10] is recorded as 80%. Moreover, the “herbicidal activity on Setaria viridis” value in experiment [7] amounted to 100%. Further, the “herbicidal activity on Veronica persica” value in [11] was 100%.
Take `CCn1cc(Sc2ccc(F)cc2)c(Oc2ncc(Cl)cn2)n1` [Example I-121]: the “herbicidal activity on Amaranthus retroflexus” value in experiment [2] amounted to 80%; in experiment [6] it was 100%. The “herbicidal activity on Polygonum convolvulus” value in [12] is recorded as 80%; in [10], 90%. For the same compound, the “herbicidal activity on Viola tricolor” value was 80% in experiment [4] and 100% in experiment [9]. Moreover, in [7], the “herbicidal activity on Setaria viridis” value was found to be 90%. Moreover, the “herbicidal activity on Stellaria media” value in [8] was found to be 80%. Moreover, the “herbicidal activity on Veronica persica” value in experiment [11] came out at 100%.
Consider `CCc1c(Sc2cccc(F)c2)c(Oc2ncc(F)cn2)nn1C` [Example I-203], for which the “herbicidal activity on Abutilon theophrasti” value in experiment [1] is listed as 100%; in experiment [5], 90%. Further, the “herbicidal activity on Amaranthus retroflexus” value in experiment [2] and in [6] was 100% in each case. Besides, the “herbicidal activity on Pharbitis purpurea” value in experiment [3] turned out to be 90%. The figures for the “herbicidal activity on Setaria viridis” value in [13] and in [7] were 90% and 100%, respectively. The “herbicidal activity on Stellaria media” value in experiment [14] is listed as 90%; in experiment [8], 80%. Further, the “herbicidal activity on Viola tricolor” value in experiment [4] turned out to be 100%; in experiment [9], 90%. Moreover, in [15], the “herbicidal activity on Alopecurus myosuroides” value came out at 90%. Moreover, the “herbicidal activity on Echinochloa crus-galli” value in experiment [16] came to 80%. Moreover, in experiment [17], the “herbicidal activity on Matricaria inodora” value came out at 80%. Further, the “herbicidal activity on Polygonum convolvulus” value in [10] was found to be 80%. Besides, the “herbicidal activity on Veronica persica” value in [11] worked out at 100%.
On to `CCn1cc(Sc2ccc(Cl)cc2)c(Oc2ncc(F)cn2)n1` [Example I-160], for which the “herbicidal activity on Viola tricolor” value in [4] and in [9] was 100% throughout. Besides, the “herbicidal activity on Polygonum convolvulus” value in experiment [10] was 80%. Besides, in experiment [11], the “herbicidal activity on Veronica persica” value turned out to be 100%.
As for `CCn1cc(Sc2ccccc2)c(Oc2ncccn2)n1` [Example I-042], the “herbicidal activity on Polygonum convolvulus” value in experiment [12] is 80%. The “herbicidal activity on Amaranthus retroflexus” value in experiment [6] came to 80%. The “herbicidal activity on Matricaria inodora” value in experiment [17] worked out at 90%. Besides, the “herbicidal activity on Setaria viridis” value in experiment [7] was 80%. Further, in experiment [8], the “herbicidal activity on Stellaria media” value is on record as 100%. Besides, the “herbicidal activity on Veronica persica” value in [11] was 100%. Also, the “herbicidal activity on Viola tricolor” value in experiment [9] stood at 90%.
`CCc1c(Sc2cccc(Cl)c2)c(Oc2ncccn2)nn1C` [Example I-035]: the “herbicidal activity on Abutilon theophrasti” value in experiment [1] is given as 100%. The “herbicidal activity on Polygonum convolvulus” value in experiment [12] was found to be 100%. In addition, in [14], the “herbicidal activity on Stellaria media” value is 80%. Further, the “herbicidal activity on Viola tricolor” value in [4] and in experiment [9] was 100% each time. For the same compound, the “herbicidal activity on Amaranthus retroflexus” value in experiment [6] was 90%. Besides, in [7], the “herbicidal activity on Setaria viridis” value is 90%.
Regarding `Cc1ccnc(Oc2nn(C)c(C)c2Sc2cccc(Cl)c2)n1` [Example I-096], the “herbicidal activity on Abutilon theophrasti” value in experiment [1] worked out at 80%; in experiment [5] it was 100%. For the same compound, in experiment [15], the “herbicidal activity on Alopecurus myosuroides” value came out at 100%. In addition, the “herbicidal activity on Amaranthus retroflexus” value in [6] worked out at 100%. Further, the “herbicidal activity on Echinochloa crus-galli” value in [16] amounted to 80%. In addition, the “herbicidal activity on Matricaria inodora” value in experiment [17] was 100%. Besides, in [10], the “herbicidal activity on Polygonum convolvulus” value stood at 100%. In addition, in experiment [7], the “herbicidal activity on Setaria viridis” value was found to be 100%. In addition, the “herbicidal activity on Stellaria media” value in experiment [8] worked out at 90%. Moreover, the “herbicidal activity on Veronica persica” value in experiment [11] came to 100%. Moreover, the “herbicidal activity on Viola tricolor” value in [9] is reported as 100%.
Take `COc1cnc(Oc2nn(C)c(C)c2Sc2ccc(F)cc2Cl)nc1` [Example I-156]: the “herbicidal activity on Amaranthus retroflexus” value in experiment [2] and in experiment [6] was 100% in each case. Also, the “herbicidal activity on Polygonum convolvulus” value in [12] stood at 80%; in experiment [10], 100%. The “herbicidal activity on Viola tricolor” value in experiment [4] and in experiment [9] was 100% in each case. In addition, the “herbicidal activity on Abutilon theophrasti” value in [5] came to 90%. Also, the “herbicidal activity on Echinochloa crus-galli” value in [16] is 80%. In [17], the “herbicidal activity on Matricaria inodora” value was determined as 100%. Also, the “herbicidal activity on Setaria viridis” value in experiment [7] was 100%. Also, the “herbicidal activity on Stellaria media” value in [8] is 100%.
As to `Cn1cc(Sc2ccc(Cl)cc2)c(Oc2cnc(Cl)nc2)n1` [Example I-230], the “herbicidal activity on Viola tricolor” value in experiment [4] is 80%.
On to `CC(C)n1cc(Sc2ccc(F)cc2)c(Oc2ncccn2)n1` [Example I-039], for which the “herbicidal activity on Viola tricolor” value in experiment [4] and in experiment [9] was 100% each time. In experiment [5], the “herbicidal activity on Abutilon theophrasti” value stood at 100%. Besides, the “herbicidal activity on Alopecurus myosuroides” value in experiment [15] came to 100%. For the same compound, the “herbicidal activity on Amaranthus retroflexus” value in experiment [6] turned out to be 100%. Also, the “herbicidal activity on Avena fatua” value in experiment [18] is reported as 90%. Also, the “herbicidal activity on Matricaria inodora” value in experiment [17] is on record as 90%. For the same compound, in [10], the “herbicidal activity on Polygonum convolvulus” value turned out to be 90%. Also, the “herbicidal activity on Setaria viridis” value in experiment [7] was 90%. Moreover, the “herbicidal activity on Stellaria media” value in experiment [8] is reported as 100%. In addition, the “herbicidal activity on Veronica persica” value in [11] turned out to be 100%.
With `CCc1c(Sc2ccc(F)cc2)c(Oc2ncccn2)nn1C` [Example I-064], the entries for the “herbicidal activity on Abutilon theophrasti” value in experiment [1] and in experiment [5] were 80% and 100%, respectively. Moreover, the “herbicidal activity on Amaranthus retroflexus” value in experiment [2] and in experiment [6] was 100% each time. Also, the “herbicidal activity on Polygonum convolvulus” value in experiment [12] and in [10] was 100% throughout. Further, the “herbicidal activity on Setaria viridis” value in experiment [13] and in [7] was 100% throughout. Besides, the “herbicidal activity on Stellaria media” value in experiment [14] and in [8] was 100% each time. The “herbicidal activity on Viola tricolor” value in [4] and in experiment [9] was 100% each time. For the same compound, in experiment [15], the “herbicidal activity on Alopecurus myosuroides” value is reported as 90%. Further, the “herbicidal activity on Echinochloa crus-galli” value in experiment [16] came out at 90%. Besides, in [17], the “herbicidal activity on Matricaria inodora” value came to 90%. For the same compound, the “herbicidal activity on Veronica persica” value in experiment [11] is 100%.
